Data on 6 compounds can be found in patent US12043600B2, “Microbiocidal compounds” (SYNGENTA CROP PROTECTION AG, priority 2018, dated 2024).

Some results are limits rather than exact numbers.

For one data set, the system named is Alternaria solani. Kind of data set: Alternaria solani/Tomato/Leaf Disc (Early Blight). It counts as in vivo. As to conditions: foliar, tomato leaf disc, compared to untreated control. The method, boiled down: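 Protective leaf-disc test: compound sprayed onto tomato cv. Baby disks, spore inoculation following after 2 days. Disks kept at 80% rh, 12/12 h light/dark, 23° C. day and 21° C. night; activity read as percent disease control relative to untreated checks 5-7 days post-application.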

Data set [1] concerns Botryotinia fuckeliana (Botrytis cinerea). Kind of data set: Botryotinia fuckeliana (Botrytis cinerea)/Liquid Culture (Gray Mould). The class given is cell-based. Conditions: liquid culture, compared to untreated control. The method, then: Conidia of the fungus from cryogenic storage are directly mixed into nutrient broth (Vogels broth). After placing a (DMSO) solution of test compound into a microtiter plate (96-well format), the nutrient broth containing the fungal spores is added.

For data set [2], the system named is Glomerella lagenarium (Colletotrichum lagenarium). Nature of the data set: Glomerella lagenarium (Colletotrichum lagenarium)/Liquid Culture (Anthracnose). It counts as cell-based. Conditions: Colletotrichum orbiculare, liquid culture, compared to untreated control.
The subject of data set [3] is Blumeria graminis f. sp. tritici (Erysiphe graminis f. sp. tritici). Kind of data set: Blumeria graminis f. sp. tritici/Wheat/Leaf Disc Preventative (Powdery Mildew on Wheat). As to conditions: foliar, wheat leaf disc preventative, compared to untreated control. The class given is in vivo. A digest of the protocol:
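Preventative leaf-disc test: percent disease control versus untreated leaf segments read 6-8 days post-application. Compound spray applied to wheat cv. Kanzler segments on agar one day before shaking infected plants over them; incubation at 20° C and 60% rh, 24 h darkness then 12 h light/12 h dark cycles.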

The test system of data set [4] is Phaeosphaeria nodorum (Septoria nodorum). Nature of the data set: Phaeosphaeria nodorum (Septoria nodorum)/Wheat/Leaf Disc Preventative (Glume Blotch). It counts as in vivo. As to conditions: Parastagonospora nodorum, foliar, wheat leaf disc preventative, compared to untreated control. A digest of the protocol: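 Preventative test: compound spray first, then spore inoculation after 2 days on cv. Kanzler wheat leaf segments. Incubation in a climate cabinet at 20 °C and 75% rh under a 12 h light/12 h dark cycle. Activity rated as % control relative to untreated discs at 5–7 days post-application.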

Data set [5] relates to Monographella nivalis (Microdochium nivale). Nature of the data set: Monographella nivalis (Microdochium nivale)/Liquid Culture (Foot Rot Cereals). The class given is cell-based. As to conditions: liquid culture, compared to untreated control. A digest of the protocol:
(§1)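 PDB + cryo-stored conidia; compound in DMSO pre-plated, spore broth added on top.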

Data set [6] concerns Mycosphaerella arachidis (Cercospora arachidicola). Kind of data set: Mycosphaerella arachidis (Cercospora arachidicola)/Liquid Culture (Early Leaf Spot). The class given is cell-based. As to conditions: liquid culture, compared to untreated control. The method, boiled down: as §1
In a further data set the test system is Phakopsora pachyrhizi. Kind of data set: Phakopsora pachyrhizi/Soybean/Preventative (Soybean Rust). It counts as in vivo. As to conditions: 288 h, Phakopsora pachyrhizi (Soybean rust).
In the next data set the test system is Plasmopara viticola. Kind of data set: whole plant or invertebrate. The class given is in vivo. As to conditions: foliar, read-out: control of Plasmopara viticola.
The test system of data set [7] is Magnaporthe grisea (Pyricularia oryzae). Kind of data set: whole plant or invertebrate. As to conditions: foliar, read-out: control of Magnaporthe grisea. The class given is in vivo.
For another data set, the system named is Pyrenophora teres. Kind of data set: Pyrenophora teres/Barley/Leaf Disc Preventative (Net Blotch). It counts as in vivo. As to conditions: foliar, 200 ppm, barley leaf disc preventative, compared to untreated control, read-out: control of Pyrenophora teres. The method, boiled down: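 Preventative leaf-disc test: inoculation with fungal spores took place 2 days after spraying segments of barley cv. Hasso, placed on agar, with water-diluted formulated compound. Read-out is % disease control per compound.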

For data set [8], the system named is Mycosphaerella graminicola (Septoria tritici). Kind of data set: Mycosphaerella graminicola (Septoria tritici)/Liquid Culture (Septoria Blotch). The class given is cell-based. As to conditions: Zymoseptoria tritici; 20 ppm; liquid culture; compared to untreated control. The method, boiled down:
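Results given as % disease control: test compound in DMSO was placed in wells first, then potato dextrose broth carrying cryostored fungal conidia was added.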

Data set [9] can be described thus: Photostability assay (Atlas Suntest). The class given is physicochemical. Conditions: Suntest 750 W/m^2, spotted on microscope slides. The method, then:
The testing method to measure the photostability data of each compound in table is D1 is as specifically described below. The objective of the photostability assay was to determine the stability of the individual test compounds in a strictly controlled and reproducible environment allowing a comparison of their photostability.
Method: Compounds were dissolved in methanol (HPLC grade) to give 1 g/L stock solutions. Compound stock solution (2 μl) was spotted onto microscope slides in a 3D printed holder and put into the Atlas Suntest. The spectral output power of the Suntest was set to 750 W/m^2, which is considered typical of the daily maximum (noon) irradiance level on a very bright British Summer day. At specific time points slides were removed from the Suntest and placed in 4D vials. Wash solvent made up of 50:40:10 H2O:MeCN:THF (1 mL) is then added to the vials and whirlimixed. The resulting solution is then subsampled to an HPLC vial to be analysed. A Waters UPLC system with Photodiode Array was used with a Waters reverse phase column (BEH C18, 100×2.1 mm×1.7 μm) and acetonitrile (HPLC grade) acidified water (0.2% formic acid) mobile phase at a flow rate of 0.6 mL/min. Peak detection was at the optimum wavelength and peak areas were used for quantification
Initial and subsequent measurements of peak area attributable to the test compound were used to provide a % parent remaining at 3 hours.

Data set [10] concerns Puccinia recondita f. sp. tritici. Kind of data set: Puccinia recondita f. sp. tritici/Wheat/Leaf Disc Curative (Brown Rust). It counts as in vivo. Conditions: foliar, wheat leaf disc curative, compared to untreated control. The method, boiled down: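 Formulated compound, diluted in water, is applied to inoculated wheat cv. Kanzler leaf segments on agar one day post-inoculation (pre-incubation dark, 19° C, 75% rh). After 6-8 days at 19° C, 75% rh and 12 h/12 h light, activity is rated as percent disease control relative to untreated segments.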

For data set [11] the test system is unchanged. Nature of the data set: Puccinia recondita f. sp. tritici/Wheat/Leaf Disc Preventative (Brown Rust). The class given is in vivo. As to conditions: foliar, 200 ppm, wheat leaf disc preventative, compared to untreated control, read-out: control of Puccinia recondita f. sp. tritici.
In data set [12] the test system is Thanatephorus cucumeris (Rhizoctonia solani). Kind of data set: Thanatephorus cucumeris (Rhizoctonia solani)/Liquid Culture (Foot Rot, Damping-Off). The class given is cell-based. As to conditions: liquid culture, compared to untreated control. Here is the method: Mycelia fragments of a newly grown liquid culture of the fungus are directly mixed into nutrient broth (PDB potato dextrose broth). After placing a (DMSO) solution of the test compounds into a microtiter plate (96-well format), the nutrient broth containing the fungal material is added.

The next data set relates to Phytophthora infestans. Nature of the data set: whole plant or invertebrate. It counts as in vivo. Conditions: in Solanum lycopersicum, foliar, read-out: control of Phytophthora infestans.

In turn, `CO/C=C(\Oc1cc(-n2ccc(C(F)(F)F)n2)ccc1C)C(=O)OC` [Compound E-105, methyl (Z)-3-methoxy-2-[2-methyl-5-[3-(trifluoromethyl)pyrazol-1-yl]phenoxy]prop-2-enoate] had a melting point of 154 to 156 °C. Further, the pest or weed control at 200 ppm in the data set with Alternaria solani is ≥ 80%. For the same compound, the inhibition of growth at 20 ppm in data set [1] was ≥ 80%. Besides, the inhibition of growth at 20 ppm in data set [2] is ≥ 80%. Moreover, in data set [3], the pest or weed control at 200 ppm was ≥ 80%. Besides, the pest or weed control at 200 ppm in [4] is ≥ 80%. The inhibition of growth at 20 ppm in [5] was ≥ 80%. Moreover, the inhibition of growth at 20 ppm in data set [6] is ≥ 80%. The compound further returned a pest or weed control at 0.6 ppm in the data set with Phakopsora pachyrhizi (0.6 ppm) of 0%. For the same compound, the pest or weed control at 2 ppm with Phakopsora pachyrhizi (2 ppm) worked out at 0%. This compound had a pest or weed control at 6 ppm with Phakopsora pachyrhizi (6 ppm) of 20%. In the data set with Phakopsora pachyrhizi (20 ppm), the pest or weed control at 20 ppm was determined as 95%. This compound gave a pest or weed control at 60 ppm in the data set on Phakopsora pachyrhizi (60 ppm) of 100%. Further, the pest or weed control at 200 ppm with Phakopsora pachyrhizi (200 ppm, read-out: control (%)) amounted to 100%. The pest or weed control at 200 ppm in the data set on Plasmopara viticola was ≥ 80%. Also, the pest or weed control at 200 ppm in [7] was ≥ 80%. The pest or weed control at 200 ppm in the data set on Pyrenophora teres is ≥ 80%. The inhibition of growth at 20 ppm in data set [8] is ≥ 80%. Moreover, the “% Parent Remaining @ 3 hrs” value in data set [9] was 74%.

As for `CO/C=C(\Oc1cc(-n2ccc(C(C)C)n2)c(F)cc1C)C(=O)OC` [Compound E-41, methyl (Z)-2-[4-fluoro-5-(3-isopropylpyrazol-1-yl)-2-methyl-phenoxy]-3-methoxy-prop-2-enoate], the inhibition of growth at 20 ppm in data set [2], in data set [5], in data set [6], in [12] and in [8] was ≥ 80% each time. Moreover, the pest or weed control at 200 ppm (in data set [3]; in the data set with Plasmopara viticola; in [10]; in data set [11]; in data set [7]) was ≥ 80% throughout. The “% Parent Remaining @ 3 hrs” value in data set [9] turned out to be 28%.

Turning to `CO/C=C(\Oc1cc(-n2ccc(OC(C)C)n2)ccc1C)C(=O)OC` [Compound E-70, methyl (Z)-2-[5-(3-isopropoxypyrazol-1-yl)-2-methyl-phenoxy]-3-methoxy-prop-2-enoate], the melting point is 94 to 97 °C. The pest or weed control at 200 ppm in the data set on Alternaria solani was ≥ 80%. Further, the inhibition of growth at 20 ppm in [2] is ≥ 80%. Also, the pest or weed control at 200 ppm in data set [3] was ≥ 80%. Besides, the pest or weed control at 200 ppm in data set [4] is ≥ 80%. For the same compound, the inhibition of growth at 20 ppm in data set [5] is ≥ 80%. Also, the inhibition of growth at 20 ppm in data set [6] was ≥ 80%. In addition, the pest or weed control at 200 ppm in the data set with Phytophthora infestans was ≥ 80%. Also, the pest or weed control at 200 ppm in the data set with Plasmopara viticola is ≥ 80%. The pest or weed control at 200 ppm in [7] was ≥ 80%. The pest or weed control at 200 ppm in the data set on Pyrenophora teres was ≥ 80%. In addition, the inhibition of growth at 20 ppm in [8] was ≥ 80%. In addition, the “% Parent Remaining @ 3 hrs” value in data set [9] came out at 25%.

`CO/C=C(\Oc1cc(-n2ccc(C3CCC3)n2)ccc1C)C(=O)OC` [Compound E-88, methyl (Z)-2-[5-(3-cyclobutylpyrazol-1-yl)-2-methyl-phenoxy]-3-methoxy-prop-2-enoate] had a melting point of 91 to 94 °C. For the same compound, the pest or weed control at 200 ppm with Alternaria solani was ≥ 80%. In addition, the inhibition of growth at 20 ppm in data set [1] was ≥ 80%. The inhibition of growth at 20 ppm in data set [2] is ≥ 80%. The pest or weed control at 200 ppm in [3] is ≥ 80%. Also, the pest or weed control at 200 ppm in [4] was ≥ 80%. For the same compound, the inhibition of growth at 20 ppm in data set [5] is ≥ 80%. Also, the inhibition of growth at 20 ppm in data set [6] is ≥ 80%. Also, the pest or weed control at 200 ppm with Phytophthora infestans is ≥ 80%. Also, the pest or weed control at 200 ppm with Plasmopara viticola is ≥ 80%. Further, in [7], the pest or weed control at 200 ppm is ≥ 80%. Moreover, the inhibition of growth at 20 ppm in data set [8] is ≥ 80%. Moreover, the “% Parent Remaining @ 3 hrs” value in data set [9] turned out to be 34%.

With `CO/C=C(\Oc1cc(-n2ccc(C3CC3)n2)ccc1C)C(=O)OC` [Compound E-101, methyl (Z)-2-[5-(3-cyclopropylpyrazol-1-yl)-2-methyl-phenoxy]-3-methoxy-prop-2-enoate], the melting point was 115 to 118 °C. For the same compound, the inhibition of growth at 20 ppm in data set [1] was ≥ 80%. In addition, the inhibition of growth at 20 ppm in [2] is ≥ 80%. Also, the pest or weed control at 200 ppm in data set [3] was ≥ 80%. Besides, the pest or weed control at 200 ppm in [4] was ≥ 80%. In addition, in data set [5], the inhibition of growth at 20 ppm is ≥ 80%. In addition, in [6], the inhibition of growth at 20 ppm was ≥ 80%. In addition, the pest or weed control at 200 ppm in the data set with Phytophthora infestans is ≥ 80%. Moreover, the pest or weed control at 200 ppm in the data set with Plasmopara viticola is ≥ 80%. In addition, the inhibition of growth at 20 ppm in [12] is ≥ 80%. The inhibition of growth at 20 ppm in data set [8] is ≥ 80%. Moreover, the “% Parent Remaining @ 3 hrs” value in data set [9] is reported as 38%.

With `CO/C=C(\Oc1cc(-n2ccc(CC(C)C)n2)ccc1C)C(=O)OC` [Compound E-90, methyl (Z)-2-[5-(3-isobutylpyrazol-1-yl)-2-methyl-phenoxy]-3-methoxy-prop-2-enoate], the melting point is 76 to 80 °C. Moreover, the inhibition of growth at 20 ppm in [1] was ≥ 80%. Moreover, the inhibition of growth at 20 ppm in data set [2] was ≥ 80%. The pest or weed control at 200 ppm in data set [3] is ≥ 80%. For the same compound, the pest or weed control at 200 ppm in [4] is ≥ 80%. Besides, in [5], the inhibition of growth at 20 ppm was ≥ 80%. Further, the inhibition of growth at 20 ppm in [6] is ≥ 80%. Moreover, the pest or weed control at 200 ppm in the data set on Phytophthora infestans is ≥ 80%. Moreover, the pest or weed control at 200 ppm in the data set with Plasmopara viticola was ≥ 80%. In addition, in data set [7], the pest or weed control at 200 ppm is ≥ 80%. Also, the inhibition of growth at 20 ppm in data set [8] was ≥ 80%. For the same compound, the “% Parent Remaining @ 3 hrs” value in [9] turned out to be 42%.
